From article PMC4995097, “Talin-KANK1 interaction controls the recruitment of cortical microtubule stabilizing complexes to focal adhesions” (eLife, 2016)

How the values were obtained:
Format in all cases: cell-based, human
[1] = system: microtubule plus ends in HeLa cells; test: Angles of microtubule growth relative to the cell margin; conditions: talin1/2-depleted HeLa
Description: nEB3-mRFP dynamics was recorded by 0.5 s interval time lapse TIRF imaging. Microtubule growth was measured using kymographs obtained from EB3-mRFP time lapse image series, plotted and presented as previously described ([van der Vaart et al., 2013]). Ratio of microtubule growth in cell center to periphery was obtained as values for individual cells. Microtubule growth trajectory angle to the cell edge was manually measured in ImageJ using tracks obtained by maximum intensity projection of EB3-mRFP image series.

[2] = system: focal adhesions in HeLa cells; test: FA number
Description: (§1) HeLa Kyoto cell line was described previously ([Lansbergen et al., 2006]; [Mimori-Kiyosue et al., 2005]). HEK293T cells were purchased from ATCC; culture and transfection of DNA and siRNA into these cell lines was performed as previously described ([van der Vaart et al., 2013]). HaCaT cells were purchased at Cell Line Service (Eppelheim, Germany) and cultured according to manufacturer’s instructions. The cell lines were routinely checked for mycoplasma contamination using LT07-518 Mycoalert assay (Lonza, Switzerland).The identity of the cell lines was monitored by immunofluorescence-staining-based analysis with multiple markers. Blebbistatin was purchased from Enzo Life Sciences and used at 50 μM. Serum starvation in HeLa cells was done for 48 hr and focal adhesion assembly was stimulated by incubation with fetal calf serum-containing medium with or without blebbistatin for 2 hr. ROCK1 inhibitor Y-27632 was purchased at Sigma-Aldrich and used at 1 or 10 μM. Double stable HeLa cell line expressing GFP-KANK1 and TagRFP-paxillin was made by viral infection. We used a pLVIN-TagRFP-paxillin-based lentivirus and a pQC-GFP-KANK1-based retrovirus packaged in HEK293T cells using respectively Lenti-X HTX packaging and pCL-Ampho vectors. Antibiotic selection was applied to cells 48 hr after infection using 500 μg/ml G418 (Geneticin, Life Technologies) and 1 μg/ml puromycin (InvivoGen).
(§2) For presentation, images were adjusted for brightness and processed by Gaussian blur and Unsharp mask filter using ImageJ 1.47v (NIH). Fluorescence profiles are values measured by line scan analysis in ImageJ, normalized by background average fluorescence, expressed as a factor of the baseline value obtained for individual channel and plotted as a function of maximum length factor of the selection line (distance ratio). Protein clustering at the cell edge is the ratio of the total fluorescence in the first 5 μm from the cell edge to the next 5 μm measured by line scan analysis in ImageJ after thresholding for cell outline marking and out-of-cell region value assigned to zero. The results were plotted as percentage of control condition average value. FA counting and area measurement was performed using Analyze Particles under ImageJ on focal adhesion binary mask obtained after Gaussian blur/threshold-based cell outline marking and background subtraction (rolling ball radius, 10 pixels). KANK1/talin colocalization was analyzed using Pearson R value provided by Colocalization Analysis plugin under FiJi-ImageJ and a 3 μm diameter circular ROI centered on talin clusters detected by immunofluorescent staining.

[3] = system: HeLa cells; test: Cell area, attachment and spreading; set-up: AV Cell Area: unit not given here
Description: as §1, §2

[4] = system: KIF21A at the cell edge of HeLa cells; test: Peripheral clustering of KIF21A; conditions: talin1/2-depleted HeLa rescue (Fig 4G); mean, n = 12, SEM 3.66709
Description: as §1, with “ROCK1 inhibitor Y-27632 was purchased at Sigma-Aldrich and used at 1 or 10 μM. Double stable HeLa cell line expressing GFP-KANK1 and TagRFP-paxillin was made by viral infection. We used a pLVIN-TagRFP-paxillin-based lentivirus and a pQC-GFP-KANK1-based retrovirus packaged in HEK293T cells using respectively Lenti-X HTX packaging and pCL-Ampho vectors. Antibiotic selection was applied to cells 48 hr after infection using 500 μg/ml G418 (Geneticin, Life Technologies) and 1 μg/ml puromycin (InvivoGen).” left out
(§3) Fixed samples and corresponding immunofluorescence images were acquired using widefield fluorescence illumination on a Nikon Eclipse 80i or Ni upright microscope equipped with a CoolSNAP HQ2 CCD camera (Photometrics) or a DS-Qi2 camera (Nikon) an Intensilight C-HGFI precentered fiber illuminator (Nikon), ET-DAPI, ET-EGFP and ET-mCherry filters (Chroma), Nikon NIS Br software, Plan Apo VC 100x NA 1.4 oil, Plan Apo Lambda 100X oil NA 1.45 and Plan Apo VC 60x NA 1.4 oil (Nikon) objectives. […]

[5] = system: focal adhesions in HeLa cells; test: FA area; set-up: AV areaFA: unit not given here; conditions: HeLa, TLN1-KD, mTLN1 rescue; mean of per-cell averages, Count 12
Description: HeLa Kyoto cell line was described previously ([Lansbergen et al., 2006]; [Mimori-Kiyosue et al., 2005]). HEK293T cells were purchased from ATCC; culture and transfection of DNA and siRNA into these cell lines was performed as previously described ([van der Vaart et al., 2013]). HaCaT cells were purchased at Cell Line Service (Eppelheim, Germany) and cultured according to manufacturer’s instructions. The cell lines were routinely checked for mycoplasma contamination using LT07-518 Mycoalert assay (Lonza, Switzerland).The identity of the cell lines was monitored by immunofluorescence-staining-based analysis with multiple markers. Blebbistatin was purchased from Enzo Life Sciences and used at 50 μM. […]
For presentation, images were adjusted for brightness and processed by Gaussian blur and Unsharp mask filter using ImageJ 1.47v (NIH). Fluorescence profiles are values measured by line scan analysis in ImageJ, normalized by background average fluorescence, expressed as a factor of the baseline value obtained for individual channel and plotted as a function of maximum length factor of the selection line (distance ratio). Protein clustering at the cell edge is the ratio of the total fluorescence in the first 5 μm from the cell edge to the next 5 μm measured by line scan analysis in ImageJ after thresholding for cell outline marking and out-of-cell region value assigned to zero. […]

[6] = system: LL5β at the cell edge of HeLa cells; test: Peripheral clustering of LL5β; conditions: talin1/2-depleted HeLa rescue (Fig 4G); mean, n = 12, SEM 4.85049
Description: as §1
(§4) Antibodies against HA and GFP tags, and liprin β1 used for Western blot analysis were previously described ([van der Vaart et al., 2013]). Rabbit antibodies against KANK1 (HPA005539) and KANK2 (HPA015643) were purchased at Sigma-Aldrich. Western blot analysis of KANK1 was performed using rabbit polyclonal KANK1 antibody (A301-882A) purchased at Bethyl Laboratories. Talin immunofluorescence staining was performed using mouse monoclonal 8d4 antibody (Sigma-Aldrich). Western blot analysis of talin 1 and 2 expression was performed using respectively the isotype specific mouse monoclonal 97H6 (Sigma-Aldrich) and 68E7 (Abcam) antibodies. Ku80 (7/Ku80) antibody was purchased from BD Biosciences. Immunofluorescence staining of KANK1, LL5β, liprin β1, KIF21A and CLASP2 in HeLa and HaCaT cells was performed using the antibodies and procedures previously described ([Lansbergen et al., 2006]; [van der Vaart et al., 2013]). F-actin was stained using Alexa Fluor 594-conjugated phalloidin (Life Technologies). Phospho-tyrosine mouse antibody (PT-66) was purchased from Sigma-Aldrich and rabbit FAK phospho-tyrosine 397 was purchased from Biosource.
as §3

[7] = system: KANK1 at the cell edge of HeLa cells; test: Peripheral clustering of KANK1
Description: as §1, §4
Fixed samples and corresponding immunofluorescence images were acquired using widefield fluorescence illumination on a Nikon Eclipse 80i or Ni upright microscope equipped with a CoolSNAP HQ2 CCD camera (Photometrics) or a DS-Qi2 camera (Nikon) an Intensilight C-HGFI precentered fiber illuminator (Nikon), ET-DAPI, ET-EGFP and ET-mCherry filters (Chroma), Nikon NIS Br software, Plan Apo VC 100x NA 1.4 oil, Plan Apo Lambda 100X oil NA 1.45 and Plan Apo VC 60x NA 1.4 oil (Nikon) objectives. TIRFM-based live cell imaging was performed using the setup described before ([van der Vaart et al., 2013]) or a similar Nikon Ti microscope-based Ilas^2 system (Roper Scientific, Evry, FRANCE) equipped with dual laser illuminator for azimuthal spinning TIRF (or Hilo) illumination, 150 mW 488 nm laser and 100 mW 561 nm laser, 49,002 and 49,008 Chroma filter sets, EMCCD Evolve mono FW DELTA 512x512 camera (Roper Scientific) with the intermediate lens 2.5X (Nikon C mount adapter 2.5X), CCD camera CoolSNAP MYO M-USB-14-AC (Roper Scientific) and controlled with MetaMorph 7.8.8 software (Molecular Devices). Simultaneous imaging of […] was performed as described before ([van der Vaart et al., 2013]) or using the Optosplit III image splitter device (Andor) on the Ilas^2 system.
For presentation, images were adjusted for brightness and processed by Gaussian blur and Unsharp mask filter using ImageJ 1.47v (NIH). […]

For “GFP-talin1-G1404L: GFP-tagged mouse talin1 with single point mutation G1404L”, the “proportion of microtubules growing parallel to the cell edge (in words)” value [1] was “greatly increased”, the “AV #FA” value ([2]; HeLa, TLN1-KD, mTLN1 rescue, mean FA number per cell, Count 12) was 55.3333 and the “number and size of focal adhesions (in words)” value ([2]; compared to rescue with wild type talin1) was “not significantly different”. The “AV Cell Area” value ([3]; HeLa, TLN1-KD, mTLN1 rescue, mean, Count 13) was 1671.82, the “cell area (in words)” value ([3]; compared to rescue with wild type GFP-talin1) was “slightly increased compared to cells rescued with the wild type GFP-talin1” and the “cell attachment and spreading (in words)” value ([3]; talin1/2-depleted HeLa) was “could fully support cell attachment and spreading”. For the same substance, the “Peripheral clustering of KIF21A, percentage of control, AV, talin rescue” value [4] was 41.905 percentage of control condition average value, the “AV areaFA” value [5] was 1.146 and the “Peripheral clustering of LL5β, percentage of control, AV, talin rescue” value [6] was 20.7686 percentage of control condition average value. For the same substance, the “Peripheral clustering of KANK1, edge ratio, AV” value ([7]; talin1/2-depleted HeLa rescued with GFP-talin1 (Fig 3F), mean, n = 12) was 0.9974 and the “KANK1 distribution, talin rescue (in words)” value ([7]; talin1/2-depleted HeLa, Figure 3E,F) was “dispersed over the plasma membrane”.
